{"source": "patent US20260262641A1", "about": "(priority 2023, published 2026)", "key": {"[1]": {"test_system": "redlegged earth mite (H. destructor; RLEM)", "assay": "whole plant or invertebrate", "experimental": "On the 14th of May 2022, H. destructor were collected from capeweed (Arctotheca calendula) in South Morang, Victoria (−37.625, 145.110), a site with no known history of insecticide application. Mites were collected via suction using a Stihl SH55 blower vacuum, placed in plastic containers with paper towel and vegetation, and transported back to the laboratory, where they were stored at 4° C. until testing.\nSerial dilutions were prepared for each insecticide (Table 1), with the addition of a non-ionic surfactant (Tween 20) at 0.01% to aid the spread of the insecticide and ensure even coating. […] Nine concentrations of pyridaben ranging from the proposed field rate of 1480 mL diluted in 100 L of water (1998 mg a.i./L) to 1×10^−5 were serially diluted and tested along with a water control. Eight concentrations of omethoate, ranging from 10 times the field rate of 100 mL diluted in 100 L of water (290 mg a.i./L) to 1×10^−5, were tested along with a water control. Seven concentrations of bifenthrin, ranging from 10 times the field rate of 40 mL diluted in 100 L of water (100 mg a.i./L) to 1×10^−5, were tested along with a water control. For each insecticide concentration tested, approximately 10 mL of solution was poured into a 15 mL plastic vial and swirled to ensure a complete coating, with excess liquid removed. Six vials were coated per concentration and were left to dry overnight. Control vials were treated in the same way, except water (with the addition of 0.01% Tween) was used.\nApproximately eight individual H. destructor were then placed into each vial along with 2-3 leaves of common vetch (Vicia sativa), which provided food and humidity. Vials were then sealed with a screw lid and placed in a controlled temperature cabinet at 18° C. After 24-hours exposure, mites were scored as alive (moving freely), incapacitated (inhibited movement), or dead (no movement over a 5 second period).\nDose-response curves were generated by plotting percentage mortality against log concentration. […] Logistic regression is well suited for the analysis of binary response data (e.g., dead/alive). All analyses were conducted using R version 3.3.1 (R Development Core Team 2022)."}, "[2]": {"test_system": "ground pearl (Margarodes spp)", "assay": "Field trial in kikuyu turf, control of ground pearl, Sydney (Example 2)", "type": "in vivo", "experimental": "A field trial was conducted in kikuyu turf, to evaluate fenpyroximate for control of ground pearl (Margarodes spp). The trial was located at Sydney University, New South Wales (−33.888, 151.188), in an area with a known infestation of ground pearl.\nAll treatments were applied using a hand boom fitted with XR11004 nozzles, in a spray volume of 430 L/ha.\nThe ground pearl density by species was assessed by sampling 20 cores per plot and recording the number of eggs and adults, and Normalized Difference Vegetation Index (NDVI) was assessed 56 days after the third application using a Greenseeker.\n(§1) All data was statistically analyzed using analysis of variance and Fisher's protected least significant different test (Fishers LSD). The level of significance for all tests was P<0.05."}, "[3]": {"test_system": "ground pearl (Margarodes spp)", "assay": "Field trial in kikuyu turf, control of ground pearl, Robina (Example 6)", "type": "in vivo", "experimental": "A field trial was conducted in kikuyu turf, to evaluate fenpyroximate for control of ground pearl (Margarodes spp). The trial was located at Robina, Queensland (−28.069442, 153.401817), in an area with a known infestation of ground pearl.\nAll treatments were applied using a hand boom fitted with XC08 nozzles, in a spray volume of 443 L/ha.\nThe ground pearl density by species was assessed prior to the first application and again 21 days after the third application by sampling 20 cores per plot and recording the number of eggs and adults. Turf vigor was assessed on a 0 to 10 rating scale (0=dead; 10=best quality/color) prior to the first application and 42 days after the third application.\nas §1"}, "[4]": {"details": "Halotydeus destructor, 24 h, read-out: % RLEM mortality"}, "[5]": {"details": "versus untreated, P<0.05, with PE 6200"}, "[6]": {"details": "21 days after third application, product rate mL or g/ha: Meridian 1200, Kohinor 350 SC 1500, Fenpyroximate 50 SC 4000 (200 g ai/ha), each with Stamina B 20000"}, "[7]": {"details": "Pre-spray (baseline), 20 cores per plot"}}, "data": [{"smiles": "Cc1nn(C)c(Oc2ccccc2)c1C=NOCc1ccc(C(=O)OC(C)(C)C)cc1", "note": "[Fenpyroximate]", "values": [{"measurement": "concentrations at which mite mortality was observed", "setting": "[1]; 24 hours exposure", "value": "greater than 50 mg a.i./L"}, {"measurement": "mortality at 0.01 µg/mL", "setting": "[1]; [4]", "value": 0, "unit": "%"}, {"measurement": "mortality at 0.1 µg/mL", "setting": "[1]; [4]", "value": 0, "unit": "%"}, {"measurement": "mortality at 1 µg/mL", "setting": "[1]; [4]", "value": 0, "unit": "%"}, {"measurement": "mortality at 10 µg/mL", "setting": "[1]; [4]", "value": 0, "unit": "%"}, {"measurement": "mortality at 30 µg/mL", "setting": "[1]; [4]", "value": 0, "unit": "%"}, {"measurement": "mortality at 50 µg/mL", "setting": "[1]; [4]", "value": 6, "unit": "%"}, {"measurement": "mortality at 100 µg/mL", "setting": "[1]; [4]", "value": 30.5, "unit": "%"}, {"measurement": "mortality at 300 µg/mL", "setting": "[1]; [4]", "value": 93.8, "unit": "%"}, {"measurement": "mortality at 500 µg/mL", "setting": "[1]; [4]", "value": 100, "unit": "%"}, {"measurement": "mortality at 1000 µg/mL", "setting": "[1]; [4]", "value": 98.7, "unit": "%"}, {"measurement": "control of RLEM", "setting": "[1]; concentration of 300 g a.i./L (as printed in text)", "value": 93.8, "unit": "%"}, {"measurement": "control of RLEM", "setting": "[1]; concentration of 500 g a.i./L (as printed in text)", "value": 100, "unit": "%"}, {"measurement": "efficacy against RLEM (in words)", "setting": "[1]; laboratory bioassay, 24 hours exposure", "value": "highly efficacious"}, {"measurement": "NDVI, Pre-spray", "setting": "[2]; Pre-spray (baseline), kikuyu turf, Greenseeker", "value": 8.0}, {"measurement": "Ground pearls/plot, Adults, Pre-spray", "setting": "[2]; sc", "value": 4.0, "unit": "a ground pearls/plot"}, {"measurement": "Ground pearls/plot, Eggs, Pre-spray", "setting": "[2]; sc", "value": 10.3, "unit": "a ground pearls/plot"}, {"measurement": "Ground pearls/plot, Adults, 56 DAA3", "setting": "[2]; sc, 200 g/ha, 1344 h", "value": 12.8, "unit": "a ground pearls/plot"}, {"measurement": "Ground pearls/plot, Eggs, 56 DAA3", "setting": "[2]; sc, 200 g/ha, 1344 h", "value": 5.3, "unit": "a ground pearls/plot"}, {"measurement": "NDVI, 56 DAA3", "setting": "[2]; sc, 1344 h", "value": 7.6}, {"measurement": "turf color and quality / NDVI (in words)", "setting": "[2]; versus untreated, P<0.05", "value": "significantly improved"}, {"measurement": "density of ground pearl adults (in words)", "setting": "[2]; [5]", "value": "significantly reduced"}, {"measurement": "density of ground pearl eggs (in words)", "setting": "[2]; [5]", "value": "significantly reduced"}, {"measurement": "Ground pearls/plot, Adults, 21 DAA3", "setting": "[3]; [6]", "value": 1.0, "unit": "ab ground pearls/plot"}, {"measurement": "Ground pearls/plot, Eggs, 21 DAA3", "setting": "[3]; [6]", "value": 1.0, "unit": "abc ground pearls/plot"}, {"measurement": "Turf vigor (0-10), Pre-spray", "setting": "[3]; Pre-spray (baseline), 0=dead, 10=best quality/color", "value": 5.1}, {"measurement": "Ground pearls/plot, Adults, Pre-spray", "setting": "[3]; [7]", "value": 6.7, "unit": "ground pearls/plot"}, {"measurement": "Ground pearls/plot, Eggs, Pre-spray", "setting": "[3]; [7]", "value": 4.0, "unit": "ground pearls/plot"}, {"measurement": "density of ground pearl eggs and adults (in words)", "setting": "[3]; versus untreated, P<0.05", "value": "significantly reduced"}, {"measurement": "turf vigor (in words)", "setting": "[3]; versus untreated, P<0.05", "value": "significantly improved"}]}]}
